Laboratory results: US9376421B2, “Compounds and methods for myotonic dystrophy therapy” (The Board of Trustees of the University of Illinois, priority 2014, dated 2016)

Experiments:
[1] = system: d(CAG)12; assay: Isothermal titration calorimetry, d(CAG)12; assay type: binding; conditions: 25° C., 20 mM MOPS pH 7.0, 300 mM NaCl
Description: To directly assess the DNA-targeting ability of 9, ITC experiments were performed with oligonucleotide analogs of the various trinucleotide repeat sequences (Table 1). […] This supports the idea that 9 inhibits the transcription of CTG^exp by stabilizing its hairpin structure. […] The in vitro transcription experiment using (CTG[…]CAG)74 (SEQ ID NOS 3-4, respectively) and compounds 2, 5-7, and 9 was repeated but with (CUG)16 (SEQ ID NO: 1) added as a competitor.
Isothermal titration calorimetry (ITC) measurements were performed at 25° C. on a MicroCal VP-ITC (MicroCal, Inc., Northampton, Mass.). A standard experiment consisted of titrating 10 μL of a 500 μM ligand solution from a […] syringe (rotating at 300 rpm) into a sample cell containing 1.42 mL of a 10 μM DNA or RNA solution. An ITC experiment consisted of 28 total injections (first injection was 5 μL, subsequent injections were 10 μL), with a 10 s duration per injection and delay of 380 s between injections. The initial delay prior to the first injection was 300 s. To derive the heat associated with each injection, the area under each isotherm (microcalories per second versus seconds) was determined by integration by the graphing program Origin 7.0 (MicroCal, Inc. Northampton, Mass.). […]

[2] = system: (CCUG)6 / (CCUG)8; assay: Ligand-RNA binding affinity, CCUG repeats; conditions: (CCUG)8
Text: Off target activity is a concern for any therapeutic agent but especially one designed to cleave RNA. To test the selectivity of agents 6 and 9, the screening gel assay described above was applied to other RNA targets, specifically cTNT32, (CCUG)8 (SEQ ID NO: 11), and HIV-1 frameshift site RNA (HIV FS) (FIG. 5a). Both 6 and 9 were quite selective. […] Thus, both similarly adopt stem-loop structures with internal loops within the stem, although obviously of different sequences. Differences between 6 and 9 were observed (FIG. 5) with the former cleaving (CCUG)8 (SEQ ID NO: 11), the toxic RNA involved in myotonic dystrophy type 2 (DM2). […] The ability to process the RNA directly parallels the corresponding ligand-RNA binding affinities. Thus, 1, which contains the acridine-triazine core of agent 6, complexes the (CCUG)6 (SEQ ID NO: 12) and (CUG)n sequences.

[3] = system: (CUG)16; assay: (CUG)16 cleavage screening gel assay; assay type: biochemical; conditions: ligand 100 μM, (CUG)16 100 nM, 12 h, pH 7.4, 37° C., EtBr stain
Description: FIG. 2. Cleavage screening gel. (CUG)16 (SEQ ID NO: 1) (100 nM) was incubated with ligands (100 μM) and (CUG)16 (SEQ ID NO: 1) (100 nM), 12 h, 37° C. The reaction mixture was loaded onto a 20% denaturing PAGE gel and RNA was detected by post-staining with EtBr.
The potential cleavage activity of 4-9 was screened using a simple gel shift assay with (CUG)16 (SEQ ID NO: 1). To screen the agents, each agent was incubated for 12 h with unlabeled (CUG)16 (SEQ ID NO: 1) at a final concentration of 100 μM at pH 7.4. The mixture was separated on an RNA denaturing gel and stained with EtBr (FIG. 2). No loss of (CUG)16 (SEQ ID NO: 1) intensity was observed upon treatment with 2, 7, or tris(2-aminoethyl)amine (10).
RNA was fast folded at 95° C. for 5 min, followed by placing in ice for 10 min. RNA with a final concentration of 100 nM was incubated with cleaving agents 100 μM (in screening assays) and with ligand 9 at different concentrations (5, 10, 50, 100 μM). The cleaving buffer was 50 mM Tris buffer (pH 7.4) containing 150 mM NaCl and 2 mM MgCl2. The final volume of the reaction mixture was 10 μL. The reaction was quenched by adding 8 μL of 8 M urea and 2 μL of RNA loading dye followed by heating at 95° C. for 5 min. The mixture was separated on a 20% RNA denaturing gel. For non-labeled RNA, the gel was stained with EtBr and observed under UV. […]

N=C(NCCCCNc1nc(N)nc(N)n1)c1ccc(C(=N)NCCCCNc2nc(N)nc(N)n2)cc1 [Ligand 2]
binding affinity toward d(CAG)12 by ITC [1]: lack of binding affinity
affinity toward (CCUG)8 [2]: no affinity
loss of (CUG)16 intensity (RNA cleavage) [3]: No loss
